One assay has as its target human RIPK3 (Homo sapiens (Human), UniProt Q9Y572). Description: KINOMEscan binding assay, human RIPK3. As to conditions: Table 21. The procedure: (§1) Binding affinity of the test compounds for human MLKL (full length), mouse MLKL (full length), human RIPK1 and human RIPK3 was determined using the KINOMEscan™ technology developed by DiscoverX (USA; http://www.discoverx.com). The assay was conducted according to manufacturer instructions.
(§2) Kinase assays. For most assays, kinase-tagged T7 phage strains were grown in parallel in 24-well blocks in an E. coli host derived from the BL21 strain. E. coli were grown to log-phase and infected with T7 phage from a frozen stock (multiplicity of infection=0.4) and incubated with shaking at 32° C. until lysis (90-150 minutes). The lysates were centrifuged (6,000×g) and filtered (0.2 μm) to remove cell debris. The remaining kinases were produced in HEK-293 cells and subsequently tagged with DNA for qPCR detection. […] The liganded beads were blocked with excess biotin and washed with blocking buffer (SeaBlock (Pierce), 1% BSA, 0.05% Tween 20, 1 mM DTT) to remove unbound ligand and to reduce non-specific phage binding. […] All reactions were performed in polypropylene 384-well plates in a final volume of 20 μL. […] The kinase concentration in the eluates was measured by qPCR.
(§3) An 11-point 3-fold serial dilution of each test compound was prepared in 100% DMSO at 100× final test concentration and subsequently diluted to 1× in the assay (final DMSO concentration=1%). Most Kos were determined using a compound top concentration=30,000 nM.
(§4) KD for each test compound was calculated with a standard dose-response curve using the Hill equation (equation (1)): […]
(§5) The Hill Slope was set to −1.
(§6) Curves were fitted using a non-linear least square fit with the Levenberg-Marquardt algorithm.

A further assay deals with human RIPK1 (Homo sapiens (Human), UniProt Q13546). Description: KINOMEscan binding assay, human RIPK1. As to conditions: Table 21. How it is done:
as §1, §2, §3, §4, §5, §6

For another assay, the target named is human MLKL (full length) (Homo sapiens (Human), UniProt Q8NB16). The assay can be described thus: KINOMEscan binding assay, human MLKL (full length). The procedure: as §1, §2, §3, §4, §5, §6
Where [1] appears, read: hMLKL, Table 25, read-out: MLKL (KD).
The mark [2] stands for this setting: KINOMEscan, Table 21, read-out: Human MLKL (full-length) (KD).

Read-outs that look alike come from different tables or passages of the source.

The record followed here is US20250115598A1 (Anaxis Pharma Pty Ltd, priority 2021, published 2025).

Sequence of human MLKL (full length) (Q8NB16 whole entry): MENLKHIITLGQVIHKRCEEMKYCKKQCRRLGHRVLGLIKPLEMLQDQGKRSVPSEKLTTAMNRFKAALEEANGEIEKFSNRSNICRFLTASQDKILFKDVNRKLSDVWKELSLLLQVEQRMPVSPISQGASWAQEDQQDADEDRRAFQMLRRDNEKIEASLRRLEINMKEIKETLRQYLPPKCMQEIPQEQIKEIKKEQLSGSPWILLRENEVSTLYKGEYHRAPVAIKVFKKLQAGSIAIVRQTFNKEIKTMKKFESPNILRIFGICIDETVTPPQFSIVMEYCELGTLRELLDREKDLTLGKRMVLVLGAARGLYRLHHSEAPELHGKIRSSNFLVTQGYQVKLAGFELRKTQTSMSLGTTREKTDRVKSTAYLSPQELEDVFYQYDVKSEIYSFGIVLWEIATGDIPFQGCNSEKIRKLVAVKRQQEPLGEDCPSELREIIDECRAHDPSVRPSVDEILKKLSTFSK
Sequence of human RIPK1 (Q13546 whole entry): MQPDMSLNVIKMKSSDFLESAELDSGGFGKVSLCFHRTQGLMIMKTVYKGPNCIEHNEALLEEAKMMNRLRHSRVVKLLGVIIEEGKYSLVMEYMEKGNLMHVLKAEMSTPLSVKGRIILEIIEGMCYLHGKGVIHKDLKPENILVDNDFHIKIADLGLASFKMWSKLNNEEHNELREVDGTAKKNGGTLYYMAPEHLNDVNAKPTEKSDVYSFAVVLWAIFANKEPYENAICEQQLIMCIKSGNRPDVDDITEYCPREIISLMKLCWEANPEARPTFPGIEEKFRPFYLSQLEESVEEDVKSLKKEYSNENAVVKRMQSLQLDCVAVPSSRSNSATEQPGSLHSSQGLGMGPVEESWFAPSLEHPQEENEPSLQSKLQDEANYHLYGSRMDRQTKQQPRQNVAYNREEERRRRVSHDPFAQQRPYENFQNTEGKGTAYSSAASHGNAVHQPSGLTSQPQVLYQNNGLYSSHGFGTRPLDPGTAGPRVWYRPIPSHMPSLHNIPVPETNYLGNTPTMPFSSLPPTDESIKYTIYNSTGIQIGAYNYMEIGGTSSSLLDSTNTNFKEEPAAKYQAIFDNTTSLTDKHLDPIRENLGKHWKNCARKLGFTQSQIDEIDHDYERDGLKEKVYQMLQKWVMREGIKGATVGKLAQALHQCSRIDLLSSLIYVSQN
Sequence of human RIPK3 (Q9Y572 whole entry): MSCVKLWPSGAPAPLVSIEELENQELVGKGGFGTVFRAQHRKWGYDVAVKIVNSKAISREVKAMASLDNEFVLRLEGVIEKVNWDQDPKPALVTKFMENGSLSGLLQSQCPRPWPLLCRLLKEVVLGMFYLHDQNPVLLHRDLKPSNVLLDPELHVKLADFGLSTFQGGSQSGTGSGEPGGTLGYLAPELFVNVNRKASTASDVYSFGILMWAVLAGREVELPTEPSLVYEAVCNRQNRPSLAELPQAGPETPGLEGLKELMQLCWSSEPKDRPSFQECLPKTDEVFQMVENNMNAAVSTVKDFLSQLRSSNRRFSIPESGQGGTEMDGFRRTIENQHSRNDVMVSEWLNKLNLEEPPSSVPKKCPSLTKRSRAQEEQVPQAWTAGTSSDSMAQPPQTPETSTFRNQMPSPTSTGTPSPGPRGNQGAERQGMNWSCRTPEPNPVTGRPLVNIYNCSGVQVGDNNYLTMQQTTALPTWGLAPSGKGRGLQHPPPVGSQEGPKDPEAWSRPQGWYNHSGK

Regarding `C[C@H](Oc1cc(-c2nn(C)c3c(-c4cnn(C5CCCC5)c4)cnc(N)c23)ccc1NS(=O)(=O)C(F)F)c1ccc(F)cc1` [Compound 30, (S)-N-(4-(4-amino-7-(1-cyclopentyl-1H-pyrazol-4-yl)-1-methyl-1H-pyrazolo[4,3-c]pyridin-3-yl)-2-(1-(4-fluorophenyl)ethoxy)phenyl)-1,1-difluoromethanesulfonamide], the results for the dissociation constant Kd on human RIPK3 and at human RIPK1 were 0.1 to 10 µM and more than 10 µM, respectively. Regarding `Cc1ncsc1-c1ccc(CNC(=O)[C@@H]2C[C@@H](O)CN2C(=O)[C@@H](NC(=O)CCN2CCC(C#Cc3cnc(N)c4c(-c5ccc(NS(=O)(=O)C(F)F)c(O[C@@H](C)c6ccc(F)cc6)c5)nn(C)c34)CC2)C(C)(C)C)cc1` [Compound 1024, (2S,4R)-1-[(2S)-2-{3-[4-(2-{4-amino-3-[4-(difluoromethanesulfonamido)-3-[(1S)-1-(4-fluorophenyl)ethoxy]phenyl]-1-methyl-1H-pyrazolo[4,3-c]pyridin-7-yl}ethynyl)piperidin-1-yl]propanamido}-3,3-dimethylbutanoyl]-4-hydroxy-N-{[4-(4-methyl-1,3-thiazol-5-yl)phenyl]methyl}pyrrolidine-2-carboxamide], at human MLKL (full length) (setting [1]), the dissociation constant (Kd) was less than 10 nM. For the molecule `Cn1nc(-c2ccc(NS(=O)(=O)C(F)F)c(OCc3ccc(F)cc3)c2)c2c(N)ncc(-c3ccncc3)c21` [Compound 14, N-(4-(4-amino-1-methyl-7-(pyridin-4-yl)-1H-pyrazolo[4,3-c]pyridin-3-yl)-2-((4-fluoro-benzyl)oxy)phenyl)-1,1-difluoromethane-sulfonamide], the Kd on human MLKL (full length) (setting [2]) is less than 1 nM. With `CN[C@@H](C)C(=O)N[C@H](C(=O)N1C[C@H](NC(=O)CCCCn2cc(-c3cnc(N)c4c(-c5ccc(NS(=O)(=O)C(F)F)c(O[C@@H](C)c6ccc(F)cc6)c5)nn(C)c34)cn2)C[C@H]1C(=O)Nc1c(F)cccc1F)C(C)(C)C` [Compound 1080, (2S)-4-[5-(4-{4-amino-3-[4-(difluoromethanesulfonamido)-3-[(1S)-1-(4-fluorophenyl)ethoxy]phenyl]-1-methyl-1H-pyrazolo[4,3-c]pyridin-7-yl}-1H-pyrazol-1-yl)pentanamido]-N-(2,6-difluorophenyl)-1-[(2S)-3,3-dimethyl-2-[(2S)-2-(methylamino)propanamido]butanoyl]pyrrolidine-2-carboxamide], the Kd on human MLKL (full length) (setting [1]) was less than 10 nM.

For `Cc1ncsc1-c1ccc(CNC(=O)[C@@H]2C[C@@H](O)CN2C(=O)[C@@H](NC(=O)c2ccc(OCCn3cc(-c4cnc(N)c5c(-c6ccc(NS(=O)(=O)C(F)F)c(O[C@@H](C)c7ccc(F)cc7)c6)nn(C)c45)cn3)cc2)C(C)(C)C)cc1` [Compound 1037, (2S,4R)-1-[(2S)-2-({4-[2-(4-{4-amino-3-[4-(difluoromethanesulfonamido)-3-[(1S)-1-(4-fluorophenyl)ethoxy]phenyl]-1-methyl-1H-pyrazolo[4,3-c]pyridin-7-yl}-1H-pyrazol-1-yl)ethoxy]phenyl}formamido)-3,3-dimethylbutanoyl]-4-hydroxy-N-{[4-(4-methyl-1,3-thiazol-5-yl)phenyl]methyl}pyrrolidine-2-carboxamide], the Kd on human MLKL (full length) (setting [1]) lay in the range of 10 to 1000 nM. On the same count and under the same terms, then `Cc1ncsc1-c1ccc(CNC(=O)[C@@H]2C[C@@H](O)CN2C(=O)[C@@H](NC(=O)CCCCOC(=O)c2ccc(-c3cnc(N)c4c(-c5ccc(NS(=O)(=O)C(F)F)c(O[C@@H](C)c6ccc(F)cc6)c5)nn(C)c34)cn2)C(C)(C)C)cc1` [Compound 1065, 4-{[(2S)-1-[(2S,4R)-4-hydroxy-2-({[4-(4-methyl-1,3-thiazol-5-yl)phenyl]methyl}carbamoyl)pyrrolidin-1-yl]-3,3-dimethyl-1-oxobutan-2-yl]carbamoyl}butyl 5-{4-amino-3-[4-(difluoromethanesulfonamido)-3-[(1S)-1-(4-fluorophenyl)ethoxy]phenyl]-1-methyl-1H-pyrazolo[4,3-c]pyridin-7-yl}pyridine-2-carboxylate], with less than 10 nM; and `C[C@H](Oc1cc(-c2nn(C)c3c(-c4cnn(C5CCN(CCN6CCCC6COc6cccc7c6C(=O)N(C6CCC(=O)NC6=O)C7=O)CC5)c4)cnc(N)c23)ccc1NS(=O)(=O)C(F)F)c1ccc(F)cc1` (stereo partly drawn) [Compound 1120, N-(4-{4-amino-7-[1-(1-{2-[2-({[2-(2,6-dioxopiperidin-3-yl)-1,3-dioxo-2,3-dihydro-1H-isoindol-4-yl]oxy}methyl)pyrrolidin-1-yl]ethyl}piperidin-4-yl)-1H-pyrazol-4-yl]-1-methyl-1H-pyrazolo[4,3-c]pyridin-3-yl}-2-[(1S)-1-(4-fluorophenyl)ethoxy]phenyl)-1,1-difluoromethanesulfonamide], with less than 10 nM.

With `COc1ccc([C@H](C)Oc2cc(-c3nn(C)c4c(-c5cnn(C6CCOCC6)c5)cnc(N)c34)ccc2NS(=O)(=O)C(F)F)cc1` [Compound 129, (S)-N-(4-(4-amino-1-methyl-7-(1-(tetrahydro-2H-pyran-4-yl)-1H-pyrazol-4-yl)-1H-pyrazolo[4,3-c]pyridin-3-yl)-2-(1-(4-methoxy-phenyl)ethoxy)phenyl)-1,1-difluoromethane-sulfonamide], at human MLKL (full length) (setting [2]), the Kd was less than 1 nM. For `C[C@H](Oc1cc(-c2nn(C)c3c(-c4cnn(C5CCN(C(=O)CCC6CCN(c7cccc8c7C(=O)N(C7CCC(=O)N(C)C7=O)C8=O)CC6)CC5)c4)cnc(N)c23)ccc1NS(=O)(=O)C(F)F)c1ccc(F)cc1` (stereo partly drawn) [Compound 1141, N-[4-(4-amino-1-methyl-7-{1-[1-(3-{1-[2-(1-methyl-2,6-dioxopiperidin-3-yl)-1,3-dioxo-2,3-dihydro-1H-isoindol-4-yl]piperidin-4-yl}propanoyl)piperidin-4-yl]-1H-pyrazol-4-yl}-1H-pyrazolo[4,3-c]pyridin-3-yl)-2-[(1S)-1-(4-fluorophenyl)ethoxy]phenyl]-1,1-difluoromethanesulfonamide], the dissociation constant Kd at human MLKL (full length) (setting [1]) was less than 10 nM. On the same count and under the same terms, in the case of `Cc1ncsc1-c1ccc(CNC(=O)[C@@H]2C[C@@H](O)CN2C(=O)[C@@H](NC(=O)CCCCN2CCC(C#Cc3cnc(N)c4c(-c5ccc(NS(=O)(=O)C(F)F)c(O[C@@H](C)c6ccc(F)cc6)c5)nn(C)c34)CC2)C(C)(C)C)cc1` [Compound 1063, (2S,4R)-1-[(2S)-2-{5-[4-(2-{4-amino-3-[4-(difluoromethanesulfonamido)-3-[(1S)-1-(4-fluorophenyl)ethoxy]phenyl]-1-methyl-1H-pyrazolo[4,3-c]pyridin-7-yl}ethynyl)piperidin-1-yl]pentanamido}-3,3-dimethylbutanoyl]-4-hydroxy-N-{[4-(4-methyl-1,3-thiazol-5-yl)phenyl]methyl}pyrrolidine-2-carboxamide] it was less than 10 nM; in that of `Cc1ncsc1-c1ccc(CNC(=O)[C@@H]2C[C@@H](O)CN2C(=O)[C@@H](NC(=O)C2(F)CC2)C(C)(C)C)c(OCCCCCCCCCn2cc(-c3cnc(N)c4c(-c5ccc(NS(=O)(=O)C(F)F)c(O[C@@H](C)c6ccc(F)cc6)c5)nn(C)c34)cn2)c1` [Compound 1138, (2S,4R)—N-[(2-{[9-(4-{4-amino-3-[4-(difluoromethanesulfonamido)-3-[(1S)-1-(4-fluorophenyl)ethoxy]phenyl]-1-methyl-1H-pyrazolo[4,3-c]pyridin-7-yl}-1H-pyrazol-1-yl)nonyl]oxy}-4-(4-methyl-1,3-thiazol-5-yl)phenyl)methyl]-1-[(2S)-2-[(1-fluorocyclopropyl) formamido]-3,3-dimethylbutanoyl]-4-hydroxypyrrolidine-2-carboxamide], 10 to 1000 nM. The same measure, in the same setting: in the case of `COc1ccc(C(=O)N2CCC(n3cc(-c4cnc(N)c5c(-c6ccc(NS(=O)(=O)C(F)F)c(O[C@@H](C)c7ccc(F)cc7)c6)nn(C)c45)cn3)CC2)cc1N1CCC(=O)NC1=O` [Compound 1092, N-{4-[4-amino-7-(1-{1-[3-(2,4-dioxo-1,3-diazinan-1-yl)-4-methoxybenzoyl]piperidin-4-yl}-1H-pyrazol-4-yl)-1-methyl-1H-pyrazolo[4,3-c]pyridin-3-yl]-2-[(1S)-1-(4-fluorophenyl)ethoxy]phenyl}-1,1-difluoromethanesulfonamide] it was less than 10 nM; in that of `CN[C@@H](C)C(=O)N[C@H](C(=O)N1C[C@H](NC(=O)COCCn2cc(-c3cnc(N)c4c(-c5ccc(NS(=O)(=O)C(F)F)c(O[C@@H](C)c6ccc(F)cc6)c5)nn(C)c34)cn2)C[C@H]1C(=O)Nc1c(F)cccc1F)C(C)(C)C` [Compound 1089, (2S)-4-{2-[2-(4-{4-amino-3-[4-(difluoromethanesulfonamido)-3-[(1S)-1-(4-fluorophenyl)ethoxy]phenyl]-1-methyl-1H-pyrazolo[4,3-c]pyridin-7-yl}-1H-pyrazol-1-yl)ethoxy]acetamido}-N-(2,6-difluorophenyl)-1-[(2S)-3,3-dimethyl-2-[(2S)-2-(methylamino)propanamido]butanoyl]pyrrolidine-2-carboxamide], less than 10 nM.
